Active and inactive are the calls of the source. The calls are words filed in the database; no cut-off is given here.
Experiments:
[1] = Cytotoxicity against human HCT116 cells assessed as cell growth inhibition after 72 hrs by MTT assay; assay type: functional, cell-based; conditions: HCT-116, 72 h
[2] = Cytotoxicity against human LNCAP cells assessed as cell growth inhibition after 72 hrs by MTT assay; assay type: functional, cell-based
[3] = target: T1, Histone deacetylase 8 (Homo sapiens, UniProt Q9BY41); assay: Inhibition of HDAC8 (unknown origin) after 2.5 hrs by SAMDI mass spectroscopic analysis
T1 sequence (Q9BY41 whole entry): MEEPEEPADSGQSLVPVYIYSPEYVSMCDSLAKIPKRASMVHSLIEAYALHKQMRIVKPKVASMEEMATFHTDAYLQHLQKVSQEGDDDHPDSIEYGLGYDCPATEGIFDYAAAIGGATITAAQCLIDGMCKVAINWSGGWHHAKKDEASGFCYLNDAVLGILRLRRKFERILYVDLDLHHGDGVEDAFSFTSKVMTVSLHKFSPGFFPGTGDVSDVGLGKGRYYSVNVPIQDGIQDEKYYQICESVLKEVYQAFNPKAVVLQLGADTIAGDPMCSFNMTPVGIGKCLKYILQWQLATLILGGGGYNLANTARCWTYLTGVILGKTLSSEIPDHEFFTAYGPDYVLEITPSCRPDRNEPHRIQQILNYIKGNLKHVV

[4] = target: Histone deacetylase 3 (Homo sapiens, UniProt O15379); assay: Inhibition of HDAC3 (unknown origin) after 5 hrs by SAMDI mass spectroscopic analysis
Chain of Histone deacetylase 3 (O15379 whole entry): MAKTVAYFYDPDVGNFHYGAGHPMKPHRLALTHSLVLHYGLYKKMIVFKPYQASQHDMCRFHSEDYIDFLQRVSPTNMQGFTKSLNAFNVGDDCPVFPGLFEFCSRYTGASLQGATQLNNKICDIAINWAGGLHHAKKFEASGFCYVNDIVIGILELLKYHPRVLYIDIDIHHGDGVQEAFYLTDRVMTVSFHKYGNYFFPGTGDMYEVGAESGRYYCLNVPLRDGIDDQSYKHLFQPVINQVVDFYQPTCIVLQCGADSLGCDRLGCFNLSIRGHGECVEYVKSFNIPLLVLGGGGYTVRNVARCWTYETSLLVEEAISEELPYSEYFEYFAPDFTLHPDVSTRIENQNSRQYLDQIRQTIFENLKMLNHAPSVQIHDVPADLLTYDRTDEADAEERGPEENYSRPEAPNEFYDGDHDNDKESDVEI

[5] = target: T2, Prostaglandin G/H synthase 2 (Homo sapiens) (UniProt P35354); assay: Inhibition of recombinant human COX2 at 10 uM using arachidonic acid as substrate preincubated for 15 mins followed by substrate addition for 2 mins by Cayman based fluorescence assay
T2 sequence (whole entry): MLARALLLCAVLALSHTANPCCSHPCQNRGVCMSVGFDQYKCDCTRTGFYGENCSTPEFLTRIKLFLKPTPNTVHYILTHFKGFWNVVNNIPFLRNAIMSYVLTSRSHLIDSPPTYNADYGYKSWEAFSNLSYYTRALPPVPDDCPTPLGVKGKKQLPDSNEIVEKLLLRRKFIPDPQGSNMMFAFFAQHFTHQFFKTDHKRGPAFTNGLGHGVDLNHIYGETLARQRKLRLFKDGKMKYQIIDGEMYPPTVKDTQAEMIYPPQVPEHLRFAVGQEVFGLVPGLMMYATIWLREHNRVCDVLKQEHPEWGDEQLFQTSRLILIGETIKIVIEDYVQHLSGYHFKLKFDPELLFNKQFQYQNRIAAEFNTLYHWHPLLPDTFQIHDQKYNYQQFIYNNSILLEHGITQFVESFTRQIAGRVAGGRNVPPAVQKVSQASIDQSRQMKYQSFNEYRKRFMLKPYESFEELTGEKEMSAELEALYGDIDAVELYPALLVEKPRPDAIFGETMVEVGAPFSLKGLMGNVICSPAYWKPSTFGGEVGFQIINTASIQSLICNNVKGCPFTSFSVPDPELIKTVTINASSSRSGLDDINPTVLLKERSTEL

[6] = target: Histone deacetylase 1 (Homo sapiens, UniProt Q13547); assay: Inhibition of HDAC1 (unknown origin) after 24 hrs by SAMDI mass spectroscopic analysis
Chain of Histone deacetylase 1 (Q13547 whole entry): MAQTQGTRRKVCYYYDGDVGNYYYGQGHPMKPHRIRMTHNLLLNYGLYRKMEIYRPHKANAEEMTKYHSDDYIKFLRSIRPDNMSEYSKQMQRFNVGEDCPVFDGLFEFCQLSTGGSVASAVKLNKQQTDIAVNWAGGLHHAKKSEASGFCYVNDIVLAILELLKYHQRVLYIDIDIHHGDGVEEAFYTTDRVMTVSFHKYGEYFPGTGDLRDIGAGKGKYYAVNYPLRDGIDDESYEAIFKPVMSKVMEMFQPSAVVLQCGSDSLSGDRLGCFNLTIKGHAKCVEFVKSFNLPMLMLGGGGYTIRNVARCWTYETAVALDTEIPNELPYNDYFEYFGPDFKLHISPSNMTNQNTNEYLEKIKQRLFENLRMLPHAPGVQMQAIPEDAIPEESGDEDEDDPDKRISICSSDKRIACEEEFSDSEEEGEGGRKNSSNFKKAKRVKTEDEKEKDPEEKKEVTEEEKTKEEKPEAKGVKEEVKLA

[7] = target: T3, Protein deacetylase HDAC6 (Homo sapiens, UniProt Q9UBN7); assay: Inhibition of HDAC6 (unknown origin) after 20 hrs by SAMDI mass spectroscopic analysis
T3 sequence (Q9UBN7 whole entry): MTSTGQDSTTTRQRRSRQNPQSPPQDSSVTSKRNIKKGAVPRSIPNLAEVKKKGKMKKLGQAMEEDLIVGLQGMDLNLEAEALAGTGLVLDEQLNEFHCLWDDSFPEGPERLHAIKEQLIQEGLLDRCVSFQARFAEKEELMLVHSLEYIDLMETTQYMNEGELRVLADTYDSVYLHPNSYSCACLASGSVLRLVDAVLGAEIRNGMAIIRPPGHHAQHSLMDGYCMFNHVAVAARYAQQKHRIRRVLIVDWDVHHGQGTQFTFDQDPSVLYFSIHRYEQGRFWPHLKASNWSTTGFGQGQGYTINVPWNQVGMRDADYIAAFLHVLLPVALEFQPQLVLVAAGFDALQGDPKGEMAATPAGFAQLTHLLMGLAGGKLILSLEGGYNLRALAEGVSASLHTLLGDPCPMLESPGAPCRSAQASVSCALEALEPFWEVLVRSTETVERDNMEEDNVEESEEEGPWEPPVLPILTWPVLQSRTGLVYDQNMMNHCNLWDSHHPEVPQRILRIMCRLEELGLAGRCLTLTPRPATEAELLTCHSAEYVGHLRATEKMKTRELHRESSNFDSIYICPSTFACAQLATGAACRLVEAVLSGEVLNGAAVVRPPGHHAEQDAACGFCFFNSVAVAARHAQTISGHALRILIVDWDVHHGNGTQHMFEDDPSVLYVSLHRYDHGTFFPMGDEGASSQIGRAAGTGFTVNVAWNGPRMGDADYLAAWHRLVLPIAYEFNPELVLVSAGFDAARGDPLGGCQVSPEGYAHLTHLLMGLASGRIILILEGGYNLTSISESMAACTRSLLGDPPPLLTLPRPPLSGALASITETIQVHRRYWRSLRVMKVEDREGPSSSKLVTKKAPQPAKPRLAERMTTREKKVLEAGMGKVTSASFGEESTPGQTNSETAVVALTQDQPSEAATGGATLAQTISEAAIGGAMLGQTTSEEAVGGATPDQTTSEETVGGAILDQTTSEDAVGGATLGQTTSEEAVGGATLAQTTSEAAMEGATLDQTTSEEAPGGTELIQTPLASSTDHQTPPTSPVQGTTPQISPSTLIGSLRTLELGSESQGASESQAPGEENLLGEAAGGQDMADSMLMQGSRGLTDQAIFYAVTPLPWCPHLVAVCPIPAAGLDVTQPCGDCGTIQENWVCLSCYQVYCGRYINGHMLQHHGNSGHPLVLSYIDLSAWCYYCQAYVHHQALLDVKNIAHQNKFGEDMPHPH

[8] = Cytotoxicity against human MCF7 cells assessed as cell growth inhibition after 72 hrs by MTT assay; assay type: functional, cell-based; conditions: MCF7, 72 h
[9] = target: T4, Histone deacetylase 2 (Homo sapiens, UniProt Q92769); assay: Inhibition of HDAC2 (unknown origin) at 10 uM after 24 hrs by SAMDI mass spectroscopic analysis
T4 sequence (Q92769 whole entry): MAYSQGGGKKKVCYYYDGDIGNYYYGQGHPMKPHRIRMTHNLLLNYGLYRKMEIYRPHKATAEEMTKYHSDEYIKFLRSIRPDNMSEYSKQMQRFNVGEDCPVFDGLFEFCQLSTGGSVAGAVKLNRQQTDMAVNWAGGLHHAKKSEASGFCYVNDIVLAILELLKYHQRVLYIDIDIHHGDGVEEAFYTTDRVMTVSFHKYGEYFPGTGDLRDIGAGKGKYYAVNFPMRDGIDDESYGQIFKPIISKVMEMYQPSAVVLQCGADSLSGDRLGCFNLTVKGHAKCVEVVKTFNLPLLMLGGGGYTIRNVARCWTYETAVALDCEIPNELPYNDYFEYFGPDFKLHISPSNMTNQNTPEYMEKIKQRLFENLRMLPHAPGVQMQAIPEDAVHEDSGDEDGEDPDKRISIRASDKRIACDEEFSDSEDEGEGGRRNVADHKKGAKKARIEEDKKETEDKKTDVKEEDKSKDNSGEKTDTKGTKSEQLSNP

[10] = Cytotoxicity against human A549 cells assessed as cell growth inhibition after 72 hrs by MTT assay; assay type: functional, cell-based; conditions: A549, 72 h
[11] = target: T5, Prostaglandin G/H synthase 1 (Ovis aries) (UniProt P05979); assay: Inhibition of sheep COX1 at 10 uM using arachidonic acid as substrate preincubated for 15 mins followed by substrate addition for 2 mins by Cayman based fluorescence assay
T5 sequence (whole entry): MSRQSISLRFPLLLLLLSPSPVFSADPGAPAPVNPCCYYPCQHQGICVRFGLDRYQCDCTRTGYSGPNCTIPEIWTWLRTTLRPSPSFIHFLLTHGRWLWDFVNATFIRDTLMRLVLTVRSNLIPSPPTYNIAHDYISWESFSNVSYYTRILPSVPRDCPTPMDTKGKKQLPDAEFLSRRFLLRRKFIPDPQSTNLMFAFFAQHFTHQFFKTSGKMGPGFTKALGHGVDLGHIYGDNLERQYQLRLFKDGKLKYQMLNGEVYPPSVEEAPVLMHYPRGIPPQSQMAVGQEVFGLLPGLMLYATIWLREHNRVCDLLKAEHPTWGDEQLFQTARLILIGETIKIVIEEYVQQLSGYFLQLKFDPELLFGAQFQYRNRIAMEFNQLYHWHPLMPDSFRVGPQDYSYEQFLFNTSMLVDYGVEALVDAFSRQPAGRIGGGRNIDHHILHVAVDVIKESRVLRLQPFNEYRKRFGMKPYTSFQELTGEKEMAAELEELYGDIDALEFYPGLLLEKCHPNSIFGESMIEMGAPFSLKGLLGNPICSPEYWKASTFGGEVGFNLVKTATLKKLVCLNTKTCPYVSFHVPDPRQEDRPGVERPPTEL

[12] = Cytotoxicity against human DU145 cells assessed as cell growth inhibition after 72 hrs by MTT assay; assay type: functional, cell-based; conditions: DU-145, 72 h
[13] = Cytotoxicity against African green monkey Vero cells assessed as cell growth inhibition after 72 hrs by MTT assay; assay type: toxicity, cell-based; conditions: African green monkey (Chlorocebus sabaeus)
[14] = target: T4, Histone deacetylase 2; assay: Inhibition of HDAC2 (unknown origin) after 24 hrs by SAMDI mass spectroscopic analysis
[15] = system: LNCaP; assay: Induction of cell cycle arrest in human LNCAP cells assessed as accumulation at lesser G1 phase at 2.5 uM after 24 hrs by propidium iodide staining based FACS analysis (reference value: 1.59%); assay type: functional
[16] = system: LNCaP; assay: Induction of cell cycle arrest in human LNCAP cells assessed as accumulation at S phase at 2.5 uM after 24 hrs by propidium iodide staining based FACS analysis (reference value: […]); assay type: functional
[17] = system: LNCaP; assay: Induction of cell cycle arrest in human LNCAP cells assessed as accumulation at G2 phase at 2.5 uM after 24 hrs by propidium iodide staining based FACS analysis (reference value: 1.08%); assay type: functional
[18] = target: T6, Prostaglandin G/H synthase 2 (Homo sapiens, UniProt P35354); assay: Inhibition of recombinant human COX2 using arachidonic acid as substrate preincubated for 15 mins followed by substrate addition for 2 mins by Cayman based fluorescence assay
T6 sequence (P35354 whole entry): T2 sequence (whole entry)

[19] = system: LNCaP; assay: Induction of cell cycle arrest in human LNCAP cells assessed as accumulation at greater G2 phase at 2.5 uM after 24 hrs by propidium iodide staining based FACS analysis (reference value: 0.20%); assay type: functional
[20] = system: BEAS2B; conditions: Homo sapiens, at 1 µM
Description: Inhibition of HDAC in human BEAS2B cells assessed as reduction of NTHi-induced NFkappaB activation at 1 uM preincubated for 1 hr followed by NTHi stimulation for 5 hrs by luciferase reporter gene assay

[21] = system: LNCaP; assay: Induction of cell cycle arrest in human LNCAP cells assessed as accumulation at G1 phase at 2.5 uM after 24 hrs by propidium iodide staining based FACS analysis (reference value: 69.5%); assay type: functional
[22] = Cytotoxicity against human MCF7 cells assessed as cell growth inhibition at 100 uM after 72 hrs by MTT assay; assay type: functional; conditions: MCF7, 72 h, read-out: GI
[23] = system: LNCaP; assay: Induction of cell cycle arrest in human LNCAP cells assessed as accumulation at G1 phase at 40 uM after 24 hrs by propidium iodide staining based FACS analysis (reference value: 69.5%); assay type: functional
[24] = system: LNCaP; assay: Induction of cell cycle arrest in human LNCAP cells assessed as accumulation at greater G2 phase at 40 uM after 24 hrs by propidium iodide staining based FACS analysis (reference value: 0.20%); assay type: functional
[25] = system: LNCaP; conditions: Homo sapiens, at 10 µM
Description: Inhibition of HDAC in human LNCAP cells assessed as down regulation of androgen receptor expression at 10 uM after 24 hrs by Western blot analysis

[26] = system: LNCaP; assay: Induction of cell cycle arrest in human LNCAP cells assessed as accumulation at lesser G1 phase at 40 uM after 24 hrs by propidium iodide staining based FACS analysis (reference value: 1.59%); assay type: functional
[27] = system: LNCaP; assay: Induction of cell cycle arrest in human LNCAP cells assessed as accumulation at S phase at 40 uM after 24 hrs by propidium iodide staining based FACS analysis (reference value: […]); assay type: functional

Compound	IC50 [1]	IC50 [2]	IC50 [3]	IC50 [4]	inhibition [5]	IC50 [6]	IC50 [7]	IC50 [8]	inhibition [9]	IC50 [10]	inhibition [11]	IC50 [12]	IC50 at 72 h [13]	IC50 [14]	inhibition of growth at 100 µM [22]	other results
COc1ccc2c(c1)c(CC(=O)NCCCCCC(=O)NO)c(C)n2C(=O)c1ccc(Cl)cc1	16100 nM	> 20000 nM	345 nM	722 nM	95.1%	1810 nM	49 nM	> 100000 nM	41%	31900 nM	40.2%	–	–	–	–	–
Cc1ccc(-c2cc(C(F)(F)F)nn2-c2ccc(S(=O)(=O)NCCCCCCCC(=O)NO)cc2)cc1	–	2110 nM	989 nM	256 nM	95.6%	968 nM	61 nM	4580 nM	–	8150 nM	26.1%	10100 nM	6610 nM	929 nM	–	–
Cc1ccc(-c2cc(C(=O)NCCCCCCC(=O)NO)nn2-c2ccc(S(C)(=O)=O)cc2)cc1	–	–	345 nM	338 nM	60.2%	261 nM	50 nM	–	–	–	–	–	–	–	–	Activity [15]: 0.029%; Activity [16]: 13.8%; Activity [17]: 0.5%; IC50 [18]: 4440 nM; Activity [19]: 0.21%; inhibition [20]: Active; Activity [21]: 85.9%
COc1ccc2c(c1)c(CC(=O)NCCCCCCCC(=O)NO)c(C)n2C(=O)c1ccc(Cl)cc1	24800 nM	6460 nM	707 nM	283 nM	96.2%	1760 nM	50 nM	25100 nM	43%	–	42.8%	> 20000 nM	34700 nM	–	–	–
COc1ccc2c(c1)c(CC(=O)O)c(C)n2Cc1ccc(-c2cn(CCCCCCC(=O)NO)nn2)cc1	9900 nM	–	116 nM	59 nM	40.6%	111 nM	22 nM	–	–	–	–	–	–	302 nM	47.8%	–
COc1ccc2c(c1)c(CC(=O)O)c(C)n2C(=O)c1ccc(Cl)cc1 [INDOMETHACIN]	–	–	–	–	–	–	–	–	–	–	–	–	–	–	5.2%	Activity [23]: 71.5%; Activity [24]: 0.88%; inhibition [25]: Active; Activity [26]: 2.81%; Activity [27]: 23.5%

Reference: ChEMBL document CHEMBL3875218, “Bifunctional conjugates with potent inhibitory activity towards cyclooxygenase and histone deacetylase” (Bioorg Med Chem, 2017)
